Measured values: patent US6060462A, “Electrophilic peptide analogs as inhibitors of trypsin-like enzymes” (DuPont Pharmaceuticals Company, priority 1997, dated 2000)
Counter-ions that a name gives are not always drawn.

Tests used:
Type in all cases: biochemical
human thrombin = human thrombin (Homo sapiens, UniProt P00734); test: Inhibition of thrombin hydrolysis of chromogenic substrate S2238 (Ki); parameters: 0.2-0.5 nM human thrombin or human factor Xa; purchased Enzyme Research Laboratories, South Bend, Ind; conditions: purified human thrombin, 0.10 M sodium phosphate buffer, pH 7.5, read-out: Ki values for inhibition of Serine Proteases: Trombin
Description: (§1) The effectiveness of compounds of the present invention as inhibitors of blood coagulation proteases was determined using purified human proteases and synthetic substrates following procedures similar to those described in Kettner et al. (1990).
(§2) For these assays, the rate of enzymatic (thrombin, Factor Xa, and Factor VIIa) hydrolysis of chromogenic substrates (S2238 (H-D-Phe-Pip-Arg-pNA), S2222, and S2288, respectively; Kabi Pharmacia, Franklin, Ohio) was measured both in the absence and presence of compounds of the present invention. […] A decrease in the rate of absorbance change at 405 nm in the presence of inhibitor is indicative of enzyme inhibition. The results of this assay are expressed as inhibitory constant, Ki.
(§3) Thrombin and Xa determinations were made in 0.10 M sodium phosphate buffer, pH 7.5, containing 0.20 M NaCl, and 0.5% PEG 8000. VIIa determinations were made in 0.05 M tris buffer, pH 7.6, containing 0.10 M NaCl, 4 mM CaCl2, and 0.1% bovine serum albumin.
(§4) Reactions were allowed to go for 30 minutes and the velocities (rate of absorbance change vs time) were measured in the time frame of 25-30 minutes. The following relationship was used to calculate Ki values. [formula] where: vo is the velocity of the control in the absence of inhibitor;
(§5) vs is the velocity in the presence of inhibitor;
(§6) I is the concentration of inhibitor;
(§7) Ki is the dissociation constant of the enzyme: inhibitor complex;
(§8) S is the concentration of substrate;
(§9) Km is the Michaelis constant.

human factor Xa = biological target: T1, human factor Xa (Homo sapiens, UniProt P00742); test: Inhibition of Factor Xa hydrolysis of chromogenic substrate S2222 (Ki); conditions: purified human factor Xa, 0.10 M sodium phosphate buffer; for Ki: pH 7.5, read-out: Ki values for inhibition of Serine Proteases: Factor Xa
T1 construct: 0.2-0.5 nM human thrombin or human factor Xa; purchased Enzyme Research Laboratories, South Bend, Ind
T1 sequence (P00742 235-488 limits assumed): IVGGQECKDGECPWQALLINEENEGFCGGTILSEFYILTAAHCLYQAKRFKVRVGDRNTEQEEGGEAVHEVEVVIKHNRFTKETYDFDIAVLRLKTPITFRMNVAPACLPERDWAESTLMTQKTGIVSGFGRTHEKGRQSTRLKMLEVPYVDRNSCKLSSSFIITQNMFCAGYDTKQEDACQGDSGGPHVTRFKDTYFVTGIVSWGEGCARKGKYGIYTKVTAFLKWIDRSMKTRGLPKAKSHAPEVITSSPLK
T1 sequence (P00742 41-179 partner limits assumed): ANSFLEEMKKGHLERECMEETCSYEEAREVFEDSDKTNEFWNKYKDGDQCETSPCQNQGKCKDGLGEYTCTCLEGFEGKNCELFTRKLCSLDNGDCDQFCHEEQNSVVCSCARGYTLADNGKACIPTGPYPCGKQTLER
Description: as §1, §2, §3, §4, §5, §6, §7, §8, §9

human factor VIIa = biological target: T2, human factor VIIa (Homo sapiens, UniProt P08709); test: Inhibition of Factor VIIa hydrolysis of chromogenic substrate S2288 (Ki); conditions: purified human factor VIIa, 0.05 M tris buffer; for Ki values for inhibition of Serine Proteases: Factor VIIa: pH 7.6; for Ki: pH 7.6, read-out: Ki values for inhibition of Serine Proteases: Factor VIIa
T2 construct: 50 nM human factor VIIa (BiosPacific, Emeryville, Calif.); purchased BiosPacific, Emeryville, Calif
T2 sequence (P08709 213-466 limits assumed): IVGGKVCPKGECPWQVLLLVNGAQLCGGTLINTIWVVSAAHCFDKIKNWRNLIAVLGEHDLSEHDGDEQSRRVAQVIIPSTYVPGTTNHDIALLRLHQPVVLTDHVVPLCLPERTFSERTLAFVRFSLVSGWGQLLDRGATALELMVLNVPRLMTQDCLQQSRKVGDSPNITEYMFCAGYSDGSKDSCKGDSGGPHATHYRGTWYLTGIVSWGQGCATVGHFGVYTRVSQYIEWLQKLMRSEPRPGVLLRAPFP
T2 sequence (P08709 61-212 partner limits assumed): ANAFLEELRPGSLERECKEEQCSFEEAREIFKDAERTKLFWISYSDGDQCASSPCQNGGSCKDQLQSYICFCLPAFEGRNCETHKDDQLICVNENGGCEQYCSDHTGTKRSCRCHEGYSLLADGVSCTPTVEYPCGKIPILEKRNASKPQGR
Description: as §1, §2, §3, §4, §5, §6, §7, §8, §9

| Compound | Ki (human thrombin) [nM] | Ki (human factor Xa) [nM] | Ki values for inhibition of Serine Proteases: Factor VIIa (human factor VIIa) | Ki (human factor VIIa) [nM] | Ki values for inhibition of Serine Proteases: Factor Xa (human factor Xa; pH 7.5) |
| --- | --- | --- | --- | --- | --- |
| 2-(Benzyl)-Benzoyl-Sar-Lys--C(=O)--NHNH2 2 HCl [Example 70.4.2] | < 50000 | < 50000 | inactive |  |  |
| CC1(C)C2CC3OB(C(CCCCN)NC(=O)CN(CCc4cccc(C(F)(F)F)c4)C(=O)CCc4ccccc4)OC3(C)C1C2 (stereo not drawn) [Example 51.1.1, Hydrocinnamoyl-[N-(3-(Trifluoromethyl)-Phenethyl)-Gly]-boroLys--C10H16 HCl] | < 500 | < 500 |  | < 50000 |  |
| Cc1cccc(CCN(CC(=O)NC(CCCCN)B2OC3CC4CC(C4(C)C)C3(C)O2)C(=O)CCc2ccccc2)c1 (stereo not drawn) [Example 51.1.2, Hydrocinnamoyl-[N-(3-(Methyl)-Phenethyl)-Gly]-boroLys-C10H16 HCl] | < 500 |  |  |  |  |
| NCCCCC(NC(=O)CN(C(=O)CCc1ccccc1)C1CCCCC1)B(O)O (stereo not drawn) [Example 53.4.3, Hydrocinnamoyl-[N-(Cyclohexyl)-Gly]-boroLys--OH HCl] | < 500 | < 50000 |  | < 500 |  |
| CCC(CC)(CN(CC(=O)NC(CCCCN)B1OC2CC3CC(C3(C)C)C2(C)O1)C(=O)CCc1ccccc1)c1ccccc1 (stereo not drawn) [Example 54.1.3, Hydrocinnamoyl-[N-(2,2-(Diethyl)-Phenethyl)-Gly]-boroLys-C10H16 HCl] | < 500 | < 50000 |  | < 500 |  |
| CC1(C)C2CC3OB(C(CCCCN)NC(=O)CN(CCc4ccccc4C4CCCC4)C(=O)CCc4ccccc4)OC3(C)C1C2 (stereo not drawn) [Example 54.3.2, Hydrocinnamoyl-[N-(2-(Cyclopentyl)-Phenethyl)-Gly]-boroLys-C10H16 HCl] | < 500 | < 50000 |  | < 500 |  |
| CC(C)(CN(CC(=O)NC(CCCCN)B1OC2CC3CC(C3(C)C)C2(C)O1)C(=O)CCc1ccccc1)c1ccccc1 (stereo not drawn) [Example 54.3.3, Hydrocinnamoyl-[N-(2,2-(Dimethyl)-Phenethyl)-Gly]-boroLys-C10H16 HCl] |  | < 50000 |  | < 500 |  |
| CC(C)(CN(CC(=O)NC(CCCNC(=N)N)B(O)O)C(=O)CCc1ccccc1)c1ccccc1 (stereo not drawn) [Example 55.1.1, Hydrocinnamoyl-[N-(2,2-(Dimethyl)-Phenethyl)-Gly]-boroArg--OH HCl] | < 500 | < 500 |  | < 500 |  |
| CC(C)(CN(CC(=O)NC(CCCNC(=N)N)B1OC2CC3CC(C3(C)C)C2(C)O1)C(=O)CCc1ccccc1)c1ccccc1 (stereo not drawn) [Example 56.1.1, Hydrocinnamoyl-[N-(2,2-(Dimethyl)-Phenethyl)-Gly]-boroArg-C10H16 HCl] | < 500 | < 500 |  | < 500 |  |
| CC(C)(CN(CC(=O)NC(CCCN)B1OC2CC3CC(C3(C)C)C2(C)O1)C(=O)CCc1ccccc1)c1ccccc1 (stereo not drawn) [Example 60.1.1, Hydrocinnamoyl-[N-(2,2-(Dimethyl)-Phenethyl)-Gly]-boroOrn-C10H16 HCl] | < 500 | < 50000 |  |  |  |
| COC(=O)CC(C)(C)CC(=O)N(CCc1ccccc1)CC(=O)NC(CCCCN)B(O)O (stereo not drawn) [Example 66.1.3, Methyl Glutaryl(3,3-Dimethyl)-[N-(Phenethyl)-Gly]-boroLys--OH HCl] | < 500 |  |  | < 50000 |  |
| CC(c1ccccc1)N(CC(=O)NC(CCCCN)B1OC2CC3CC(C3(C)C)C2(C)O1)C(=O)CNS(C)(=O)=O (stereo not drawn) [Example 67.3.2, Methanesylfonyl-Gly-[N-(N-(Methyl)-Benzyl)-Gly]-boroLys-C10H16 HCl] | < 500 |  |  |  |  |
| CC(C)(C)OC(=O)NC(CCC(=O)O)C(=O)N(CCc1ccccc1)CC(=O)NC(CCCCN)B1OC2CC3CC(C3(C)C)C2(C)O1 (stereo not drawn) [Example 69.2.1, Boc-Glu-[N-(Phenethyl)-Gly]-boroLys-C10H16] | < 500 |  |  | < 500 |  |
| COC(=O)CCC(NC(=O)OC(C)(C)C)C(=O)N(CCc1ccccc1)CC(=O)NC(CCCCN)B1OC2CC3CC(C3(C)C)C2(C)O1 (stereo not drawn) [Example 69.2.3, Boc-Glu(OCH3)-[N-(Phenethyl)-Gly]-boroLys--C10H16 HCl] | < 500 |  |  | < 50000 |  |
| CN(CC(=O)NC(CCCNC(=N)N)B(O)O)C(=O)c1ccccc1Sc1ccccc1C#N (stereo not drawn) [Example 75.3.1, (2-(2-Cyano)-Thiophenyl)-Benzoyl-Sar-boroArg--OH HCl] |  |  |  | < 500 |  |
| Hydrocinnamoyl-Sar-Lys--C(=O)--CH3 HCl [Example 61.2.3] |  |  | Inactive |  | Inactive |
| Hydrocinnamoyl-[N-(Cyclopropyl)-Gly]-boroOrn(CH=NH)-C10H16 HCl [Example 58.4.2] | < 50000 |  |  |  |  |

Continued, values first:

| Ki (human thrombin) [nM] | Ki (human factor Xa) [nM] | Ki values for inhibition of Serine Proteases: Factor VIIa (human factor VIIa) | Ki (human factor VIIa) [nM] | Ki values for inhibition of Serine Proteases: Factor Xa (human factor Xa; pH 7.5) | Compound |
| --- | --- | --- | --- | --- | --- |
| < 50000 |  |  |  |  | 2-(2-(Trifluoromethyl)-Benzyl)-Benzoyl-Sar-Lys--C(=O)--NHNH2 2 HCl [Example 71.4.2] |
| < 500 | < 50000 | inactive |  |  | CC1(C)C2CC3OB(C(CCCN)NC(=O)CN(CCc4ccccc4)C(=O)CCc4ccccc4)OC3(C)C1C2.Cl (stereo not drawn) [Example 49.1.1, Hydrocinnamoyl-[N-(Phenethyl)-Gly]-boroOrn-C10H16HCl] |
| < 500 | < 500 |  | < 50000 |  | NCCCCC(NC(=O)CN(CCc1cccc(C(F)(F)F)c1)C(=O)CCc1ccccc1)B(O)O (stereo not drawn) [Example 52.1.1, Hydrocinnamoyl-[N-(3-(Trifluoromethyl)-Phenethyl)-Gly]-boroLys--OH HCl] |
| < 500 |  |  |  |  | CC(C)(CN(CC(=O)NC(CCCCN)B1OC2CC3CC(C3(C)C)C2(C)O1)C(=O)CCc1ccccc1)c1ccccc1 (stereo not drawn) [Example 54.1.1, Hydrocinnamoyl-[N-(2,2-(Dimethyl)-Phenethyl)-Gly]-boroLys-C10H16 HCl] |
| < 500 | < 50000 |  | < 50000 |  | CC1(C)C2CC3OB(C(CCCCN)NC(=O)CN(C(=O)CCC(=O)O)C(=O)CCc4ccccc4)OC3(C)C1C2 (stereo not drawn) [Example 54.2.3, Hydrocinnamoyl-[N-(Succinyl)-Gly]-boroLys-C10H16] |
| < 500 | < 50000 |  | < 50000 |  | COC(=O)CCC(=O)N(CC(=O)NC(CCCCN)B1OC2CC3CC(C3(C)C)C2(C)O1)C(=O)CCc1ccccc1 (stereo not drawn) [Example 54.3.1, Hydrocinnamoyl-[N-(Methyl Succinyl)-Gly]-boroLys-C10H16 HCl] |
|  | < 50000 |  | < 50000 |  | Cc1cc(C)cc(CCN(CC(=O)NC(CCCCN)B2OC3CC4CC(C4(C)C)C3(C)O2)C(=O)CCc2ccccc2)c1 (stereo not drawn) [Example 54.4.1, Hydrocinnamoyl-{N-[2-(3,5-dimethylphenyl)-ethyl]-Gly}-boroLys-C10H16 HCl] |
| < 500 |  |  |  |  | CC1(C)C2CC3OB(C(CCCN)NC(=O)CN(C(=O)CCc4ccccc4)C4CC4)OC3(C)C1C2 (stereo not drawn) [Example 60.4.2, Hydrocinnamoyl-[N-(Cyclopropyl)-Gly]-boroOrn-C10H16 HCl] |
| < 500 |  |  | < 50000 |  | CC(C)(CC(=O)O)CC(=O)N(CCc1ccccc1)CC(=O)NC(CCCCN)B(O)O (stereo not drawn) [Example 66.1.2, Glutaryl(3,3-Dimethyl)-[N-(Phenethyl)-Gly]-boroLys--OH] |
| < 500 |  |  |  |  | CN(CC(=O)N(CCc1ccccc1)CC(=O)NC(CCCCN)B(O)O)S(C)(=O)=O (stereo not drawn) [Example 68.4.2] |
| < 500 |  |  | < 500 |  | CC(C)(C)OC(=O)NC(CC(=O)O)C(=O)N(CCc1ccccc1)CC(=O)NC(CCCCN)B1OC2CC3CC(C3(C)C)C2(C)O1 (stereo not drawn) [Example 69.2.2, Boc-Asp-[N-(Phenethyl)-Gly]-boroLys-C10H16] |
| < 500 |  |  |  |  | CN(CC(=O)N(CCc1ccccc1)CC(=O)NC(CCCCN)B1OC2CC3CC(C3(C)C)C2(C)O1)S(C)(=O)=O (stereo not drawn) [Example 69.4.2, Methanesulfonyl-Sar-[N-(Phenethyl)-Gly]-boroLys-C10H16 HCl] |
| < 500 |  |  |  |  | Hydrocinnamoyl-[N-(Cyclopropyl)-Gly]-boroLys(CH=NH)--OH HCl [Example 76.1.1] |
| < 500 |  |  |  |  | Hydrocinnamoyl-[N-(Cyclopropyl)-Gly]-boroLys(CH=NH)-C10H16 HCl [Example 77.1.1] |
| < 500 |  |  |  |  | Hydrocinnamoyl-[N-(N(CH3)2)-Gly]-boroLys--C10H16 HCl [Example 50.1.3] |
